Activity calls are given as the source filed them. No cut-off for these calls is given here.

For assay [1], the system named is Mus musculus. Briefly: In vivo activity tested against C3H mice bearing panc-03 murine tumor measured as log Kill value was based on tumors that grew at 561 mg/kg (po); None. In kind it is functional, organism-based. Set-up: dose 561 mg/kg.
Assay [2] concerns Mus musculus. Briefly: In vivo activity tested against C3H mice bearing panc-03 murine tumor measured as % treated/control calculated at 561 mg/kg (po). In kind it is functional.
Assay [3] has as its system Mus musculus. Briefly: In vivo activity tested against C3H mice bearing panc-03 murine tumor measured as % treated/control calculated at 1010 mg/kg (po). In kind it is functional.
Assay [4] relates to Mus musculus. In words: In vivo activity tested against C3H mice bearing panc-03 murine tumor measured as log Kill value was based on tumors that grew at 1010 mg/kg (po). In kind it is functional, organism-based. Set-up: dose 1010 mg/kg.
For assay [5], the system named is Mus musculus. In words: In vivo activity tested against C3H mice bearing panc-03 murine tumor measured as activity rating at 561 mg/kg (po). It counts as functional.
For assay [6], the system named is Mus musculus. Briefly: In vivo activity tested against C3H mice bearing panc-03 murine tumor measured as body weight loss at 1010 mg/kg (po). In kind it is functional.
Assay [7] concerns Mus musculus. Briefly: In vivo activity tested against C3H mice bearing panc-03 murine tumor measured as body weight loss at 561 mg/kg (po). In kind it is functional.
The subject of assay [8] is Mus musculus. In words: In vivo activity tested against C3H mice bearing panc-03 murine tumor measured as % treated/control calculated at 1085 mg/kg (po). In kind it is functional.
Assay [9] has as its system Mus musculus. In words: In vivo activity tested against C3H mice bearing panc-03 murine tumor measured as body weight loss at 1085 mg/kg (po). It counts as functional.
The test system of assay [10] is Mus musculus. Briefly: In vivo activity tested against C3H mice bearing panc-03 murine tumor measured as log Kill value was based on tumors that grew at 1085 mg/kg (po). Set-up: dose 1085 mg/kg. In kind it is functional, organism-based.
For assay [11], the system named is Mus musculus. Briefly: In vivo activity tested against C3H mice bearing panc-03 murine tumor measured as activity rating at 1085 mg/kg (po). In kind it is functional.
Assay [12] has as its system Mus musculus. Briefly: In vivo activity tested against C3H mice bearing panc-03 murine tumor, measured as cures at 1085 mg/kg (po); 3/5 cures. In kind it is functional.
The test system of assay [13] is Mus musculus. Briefly: In vivo activity tested against C3H mice bearing mammary adenocarcinoma -17/ADR tumor measured as % treated/control calculated at 162 mg/kg (po). It counts as functional.
The subject of assay [14] is Mus musculus. Briefly: In vivo activity tested against C3H mice bearing mammary adenocarcinoma -16c/ADR tumor measured as log Kill value was based on tumors that grew at 164 mg/kg (po). It counts as functional, organism-based. Set-up: dose 164 mg/kg.
Assay [15] relates to Mus musculus. In words: In vivo activity tested against C3H mice bearing panc-03 murine tumor measured as % treated/control calculated at 324 mg/kg (po). In kind it is functional.
Assay [16] has as its system Mus musculus. Briefly: In vivo activity tested against C3H mice bearing panc-03 murine tumor measured as body weight loss at 180 mg/kg (po). In kind it is functional.
Assay [17] concerns Mus musculus. Briefly: In vivo activity tested against C3H mice bearing panc-03 murine tumor measured as log Kill value was based on tumors that grew at 180 mg/kg (po). It counts as functional, organism-based. Set-up: dose 180 mg/kg.
Assay [18] has as its system Mus musculus. Briefly: In vivo activity tested against C3H mice bearing mammary adenocarcinoma -17/ADR tumor measured as body weight loss at 162 mg/kg (po). In kind it is functional.
Assay [19] relates to Mus musculus. In words: In vivo activity tested against C3H mice bearing mammary adenocarcinoma -17/ADR tumor measured as % treated/control calculated at 99 mg/kg (po). It counts as functional.
The test system of assay [20] is Mus musculus. In words: In vivo activity tested against C3H mice bearing mammary adenocarcinoma -16c/ADR tumor measured as body weight loss at 164 mg/kg (po). It counts as functional.
The subject of assay [21] is Mus musculus. In words: In vivo activity tested against C3H mice bearing panc-03 murine tumor measured as % treated/control calculated at 180 mg/kg (po). In kind it is functional.
Assay [22] has as its system Mus musculus. Briefly: In vivo activity tested against C3H mice bearing mammary adenocarcinoma -17/ADR tumor measured as log Kill value was based on tumors that grew at 99 mg/kg (po). It counts as functional, organism-based. Set-up: dose 99 mg/kg.
Assay [23] concerns Mus musculus. Briefly: In vivo activity tested against C3H mice bearing mammary adenocarcinoma -16c/ADR tumor measured as % treated/control calculated at 164 mg/kg (po). In kind it is functional.
In assay [24] the test system is Mus musculus. In words: In vivo activity tested against C3H mice bearing mammary adenocarcinoma -17/ADR tumor measured as body weight loss at 99 mg/kg (po). In kind it is functional.
Assay [25] deals with Mus musculus. In words: In vivo activity tested against C3H mice bearing panc-03 murine tumor measured as log Kill value was based on tumors that grew at 324 mg/kg (po). In kind it is functional, organism-based. Set-up: dose 324 mg/kg.
Assay [26] deals with Mus musculus. In words: In vivo activity tested against C3H mice bearing panc-03 murine tumor measured as body weight loss at 324 mg/kg (po). In kind it is functional.
The subject of assay [27] is Mus musculus. Briefly: In vivo activity tested against C3H mice bearing mammary adenocarcinoma -17/ADR tumor measured as log Kill value was based on tumors that grew at 162 mg/kg (po). In kind it is functional, organism-based. Set-up: dose 162 mg/kg.
Assay [28] concerns Mus musculus. In words: In vivo activity tested against C3H mice bearing panc-03 murine tumor measured as log Kill value was based on tumors that grew at 700 mg/kg (po). It counts as functional, organism-based. Set-up: dose 700 mg/kg.
Assay [29] has as its system Mus musculus. Briefly: In vivo activity tested against C3H mice bearing panc-03 murine tumor measured as body weight loss at 700 mg/kg (po). It counts as functional.
In assay [30] the test system is Mus musculus. In words: In vivo activity tested against C3H mice bearing panc-03 murine tumor measured as % treated/control calculated at 700 mg/kg (po). It counts as functional.

Usually T/C stands for the ratio of treated to control. On to `CC(Oc1ccc(Oc2cnc3c(Cl)cccc3n2)cc1)C(=O)O` (stereo not given), for which the Log kill result in the assay on Mus musculus [1] is “inactive”. Also, the figures for the T/C with Mus musculus [2] and in the assay on Mus musculus [3] were >100% and 59%, respectively. In addition, in the assay on Mus musculus [4], the Log kill amounted to 0.27. Besides, the Activity rating with Mus musculus [5] was <0.7. In addition, the results for the Body weight loss in the assay with Mus musculus [6] and in the assay with Mus musculus [7] were -2% and 2%, respectively.
`CC(Oc1ccc(Oc2cnc3ccc(F)cc3n2)cc1)C(=O)O` (stereo not given): in the assay with Mus musculus [8], the T/C is given as 0%. Further, in the assay on Mus musculus [9], the Body weight loss is given as -13%. In addition, the Log kill with Mus musculus [10] is 3.7. Besides, the Activity rating in the assay on Mus musculus [11] is reported as >2.8. Moreover, the Cures with Mus musculus [12] came out at 3.
For `COc1c(Cl)ccc2ncc(Oc3ccc(OC(C)C(=O)O)cc3)nc12` (stereo not given), the T/C is 7% in the assay with Mus musculus [13]; 0% with Mus musculus [15]; 13% in the assay on Mus musculus [19]; 33% with Mus musculus [21]; 7.5% with Mus musculus [23]. The Log kill in the assay with Mus musculus [14] worked out at 1.7; in the assay with Mus musculus [17] it was 0.64; with Mus musculus [22], 1.2; in the assay with Mus musculus [25] it was 3; with Mus musculus [27], 1.5. Further, the Body weight loss in the assay on Mus musculus [16] was 5%; in the assay on Mus musculus [18] it was -16.4%; with Mus musculus [20], -6.2%; in the assay on Mus musculus [24] it was -1.5%; in the assay on Mus musculus [26] it was -15%.
`CC(Oc1ccc(Oc2cnc3cc([N+](=O)[O-])ccc3n2)cc1)C(=O)O` (stereo not given) had a Log kill in the assay on Mus musculus [28] of 0.42. The Body weight loss in the assay with Mus musculus [29] was -1.4%. Besides, in the assay on Mus musculus [30], the T/C is given as 41%.
